This passage reports IC50 results from patent publication US10173991B2, “Sulfone amide linked benzothiazole inhibitors of endothelial lipase” (BRISTOL-MYERS SQUIBB COMPANY, priority 2014, dated 2019).

Sequence of Endothelial lipase (EL) (Q9Y5X9 21-500): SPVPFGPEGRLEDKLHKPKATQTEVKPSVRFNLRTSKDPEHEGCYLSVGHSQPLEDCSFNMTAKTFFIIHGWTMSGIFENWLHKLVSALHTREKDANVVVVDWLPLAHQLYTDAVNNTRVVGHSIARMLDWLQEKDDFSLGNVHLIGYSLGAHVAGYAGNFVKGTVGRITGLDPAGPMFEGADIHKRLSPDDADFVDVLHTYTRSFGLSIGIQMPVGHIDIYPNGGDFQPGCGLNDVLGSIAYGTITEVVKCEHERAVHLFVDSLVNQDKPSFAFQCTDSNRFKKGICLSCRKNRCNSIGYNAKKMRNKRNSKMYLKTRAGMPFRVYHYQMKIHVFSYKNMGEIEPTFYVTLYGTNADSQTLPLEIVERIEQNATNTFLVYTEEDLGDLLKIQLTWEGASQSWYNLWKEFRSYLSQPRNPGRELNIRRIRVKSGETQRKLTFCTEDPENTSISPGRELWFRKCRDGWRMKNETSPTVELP

The first test has as its target Endothelial lipase (EL) (Homo sapiens (Human), UniProt Q9Y5X9). Kind of test: Endothelial lipase (EL) enzymatic assay with fluorescent substrate A10070 in DMPG vesicles. The test is classed as biochemical.
Conditions: not given
The method in brief:
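Substrate A10070 sits in sonicated DMPG vesicles at 0.11 mole fraction. Lipase and compound preincubated 30 min, 37° C, in HEPES pH 8.0 buffer with CaCl2.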
For `Cn1nccc1-c1ccc2nc(C(C(=O)NCC(=O)NC3CC3)S(=O)(=O)c3ccc(F)cc3)sc2c1` (stereo not shown) [Example 459, N-[(cyclopropyl-carbamoyl)methyl]-2-(4-fluorobenzene-sulfonyl)-2-[6-(1-methyl-1H-pyrazol-5-yl)-1,3-benzothiazol-2-yl]acetamide], the IC50 (commonly the concentration that inhibits the measured activity by half) stood at 18 nM. Still for that read-out and setting: as for `COCCS(=O)(=O)C(C(=O)NCC(=O)NC1CC1)c1nc2ccc(-c3ccc(C(=O)N4C[C@@H](C)O[C@@H](C)C4)cc3)cc2s1` (stereo partly drawn) [Example 569, N-[(cyclopropyl-carbamoyl)methyl]-2-(6-{4-[(2R,6S)-2,6-dimethyl-morpholine-4-carbonyl]phenyl}-1,3-benzothiazol-2-yl)-2-(2-methoxyethane-sulfonyl)acetamide], the figure is 20 nM. The compound `COCCS(=O)(=O)C(C(=O)NCC(=O)NC1CC1)c1nc2cc(F)c(-c3ccc(NC(=O)OCc4ccccn4)cc3)cc2s1` (stereo not shown) [Example 519, pyridin-2-ylmethyl N-{4-[2-({[(cyclopropyl-carbamoyl)methyl]carbamoyl}(2-methoxyethane-sulfonyl)methyl)-5-fluoro-1,3-benzothiazol-6-yl]phenyl}carbamate] had an IC50 of 2 nM. This IC50 lies about 10-fold lower than the previous one.

Compound `COCCS(=O)(=O)C(C(=O)NCC(=O)NC1CC1)c1nc2cc(-c3ccnc(OC)c3)ccc2s1` (stereo not shown) [Example 74, N-[(cyclopropyl-carbamoyl)methyl]-2-(2-methoxyethane-sulfonyl)-2-[5-(2-methoxypyridin-4-yl)-1,3-benzothiazol-2-yl]acetamide] showed a 50% inhibitory concentration (IC50) of 31 nM. `N#Cc1cccc(COC(=O)Nc2ccc(-c3cc4sc(C(C(=O)NCC(=O)NC5CC5)S(=O)(=O)CCC(F)(F)F)nc4cc3F)cc2)c1` (stereo not shown) [Example 522, (3-cyanophenyl) methyl N-{4-[2-({[(cyclopropyl-carbamoyl)methyl]carbamoyl}(3,3,3-trifluoropropane-sulfonyl)methyl)-5-fluoro-1,3-benzothiazol-6-yl]phenyl} carbamate] displayed an IC50 of 1 nM. `Cc1ncc(-c2ccc3sc(C(C(=O)NCC(=O)NC4CC4)S(C)(=O)=O)nc3c2F)cn1` (stereo not shown) [Example 126, N-[(cyclopropyl-carbamoyl)methyl]-2-[4-fluoro-5-(2-methylpyrimidin-5-yl)-1,3-benzothiazol-2-yl]-2-methanesulfonyl-acetamide] showed an IC50 of 137 nM. Still for that read-out and setting: the result for `CC(C)S(=O)(=O)C(C(=O)NCC(=O)NC1CC1)c1nc2cc(-c3ccc(F)nc3)ccc2s1` (stereo not shown) [Example 16, N-[(cyclopropyl-carbamoyl)methyl]-2-[5-(6-fluoropyridin-3-yl)-1,3-benzothiazol-2-yl]-2-(propane-2-sulfonyl) acetamide] reads 39 nM; that for `COCCS(=O)(=O)C(C(=O)NCC(=O)NC1CC1)c1nc2cc(F)c(-c3cccc(N(C)C(=O)OC)c3)cc2s1` (stereo not shown) [Example 548, methyl N-{3-[2-({[(cyclopropyl-carbamoyl)methyl]carbamoyl}(2-methoxyethane-sulfonyl)methyl)-5-fluoro-1,3-benzothiazol-6-yl]phenyl}-N-methylcarbamate], 12 nM; that for `O=C(CNC(=O)C(c1nc2cc(-c3ccc(F)nc3)ccc2s1)S(=O)(=O)c1ccccc1)NC1CC1` (stereo not shown) [Example 437, 2-(benzenesulfonyl)-N-[(cyclopropyl-carbamoyl)methyl]-2-[5-(6-fluoropyridin-3-yl)-1,3-benzothiazol-2-yl] acetamide], 13 nM.

Still in this test, the particulars now being: EL from conditioned media of HT-1080 cells; 30 min preincubation at 37° C.
In the case of `COCCS(=O)(=O)C(C(=O)NCC(=O)NC1CC1)c1nc2ccc(-c3ccc(C(=O)NCC(C)(C)COC)cc3)cc2s1` (stereo not shown) [Example 559, 4-(2-(2-((2-(Cyclopropylamino)-2-oxoethyl)amino)-1-((2-methoxyethyl)sulfonyl)-2-oxoethyl)benzo[d]thiazol-6-yl)-N-(3-methoxy-2,2-dimethylpropyl)benzamide], half-maximal inhibition (IC50) was put at 5.5 nM.
